Results reported in paper PMC12434519.
Like-named read-outs stand apart in the source and are kept apart here.

Tests used:
ZIKV NS5 = ZIKV NS5 (Zika virus, UniProt Q32ZE1); assay: Biochemical activity assay for ZIKV NS5 MTase (MTase-Glo); details: for Emax: 0.75 h, read-out: ZIKV NS5 inhibition: Maximum measured; for ZIKV NS5 inhibition: Hill slope: fit of concentration-response curve
Protocol: final concentration, lab stock) during dialysis at 4 °C overnight against a buffer containing 50 mM Tris-HCl, pH 7.5, 20 mM imidazole, 500 mM NaCl, and 1 mM dithiothreitol (DTT). To remove the His6-SUMO tag, the protein sample was mixed with cOmplete His-Tag purification resin (Roche), incubated for 2 h at 4 °C, and loaded onto a gravity flow column. Since the His6-SUMO tag bound to the column material, the flow-through was collected containing untagged target protein. The target protein was further purified by a Superdex200 10/300 gel filtration column (GE Healthcare) in buffer (20 mM Tris-HCl, pH 7.5, 500 mM NaCl, 1 mM DTT). Fractions were analyzed by SDS-PAGE and Coomassie staining. Protein-containing fractions were pooled, flash-frozen in liquid nitrogen, and stored at -80 °C. […]
in 1X NSP14 reaction buffer (50 mM Tris-HCl, pH 7.5, 6 mM KCl, 1.25 mM MgCl2, 1 mM DTT, and 0.01% Tween-20) in a total reaction volume of 16 µl in absence or presence of increasing inhibitor compound concentrations for 45 min at 37 °C. SAH production was monitored using the bioluminescence-based MTase-Glo™ Methyltransferase Assay kit (Promega) following manufacturer’s instructions. The luminescence signal of each reaction was recorded in relative light units (RLUs) using a Synergy Neo plate reader (BioTek, Winooski, VT). […] IC50 values (mean from at least 3 independent experiments) were calculated using the GraphPad Prism software (Version 10.1.1) and a four-parameter logistic regression.
Biochemical activity assays for the human RNMT-RAM complex and ZIKV NS5 MTases Activity assays were performed in 1x NSP14 reaction buffer. For hRNMT-RAM, we used 15 nM enzyme, 2.5 µM GpppG and 2 µM SAM. For ZIKV NS5, we used 25 nM enzyme, 3 µM […]
Gppp[…]3, and 5 µM SAM. The enzymatic reaction was initiated with the addition of the enzyme in assay buffer and incubated at RT or 37 °C for 45 min, respectively. SAH was detected using the MTase-Glo™ assay.
Differential scanning fluorimetry (DSF)

[1] = SAH counterscreen inhibition (counterscreen of the MTase-Glo luminescence readout); details: for SAH counterscreen inhibition: Maximum response / IC50: LUM % inhibition; for SAH counterscreen inhibition: Hill slope: fit of concentration-response curve; for IC50: read-out: SAH counterscreen inhibition: IC50
human RNMT-RAM complex = human RNMT-RAM complex (Homo sapiens, UniProt O43148); assay: Biochemical activity assay for the human RNMT-RAM complex (MTase-Glo); details: for hRNMT-RAM inhibition: Hill slope: fit of concentration-response curve; for Emax: read-out: hRNMT-RAM inhibition: Maximum response
[2] = LUM % inhibition, read-out: hRNMT-RAM inhibition: IC50
[3] = selectivity assay, read-out: ZIKV NS5 inhibition IC50

Sequence of ZIKV NS5 (Q32ZE1 2517-2781): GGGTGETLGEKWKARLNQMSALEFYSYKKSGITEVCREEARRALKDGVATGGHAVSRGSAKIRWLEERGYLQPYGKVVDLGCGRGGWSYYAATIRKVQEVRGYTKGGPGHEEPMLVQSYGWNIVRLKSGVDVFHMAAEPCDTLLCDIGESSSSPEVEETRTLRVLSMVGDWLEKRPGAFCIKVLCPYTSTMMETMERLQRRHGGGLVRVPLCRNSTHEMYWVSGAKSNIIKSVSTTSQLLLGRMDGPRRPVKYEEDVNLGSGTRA
Sequence of human RNMT-RAM complex (O43148 whole entry): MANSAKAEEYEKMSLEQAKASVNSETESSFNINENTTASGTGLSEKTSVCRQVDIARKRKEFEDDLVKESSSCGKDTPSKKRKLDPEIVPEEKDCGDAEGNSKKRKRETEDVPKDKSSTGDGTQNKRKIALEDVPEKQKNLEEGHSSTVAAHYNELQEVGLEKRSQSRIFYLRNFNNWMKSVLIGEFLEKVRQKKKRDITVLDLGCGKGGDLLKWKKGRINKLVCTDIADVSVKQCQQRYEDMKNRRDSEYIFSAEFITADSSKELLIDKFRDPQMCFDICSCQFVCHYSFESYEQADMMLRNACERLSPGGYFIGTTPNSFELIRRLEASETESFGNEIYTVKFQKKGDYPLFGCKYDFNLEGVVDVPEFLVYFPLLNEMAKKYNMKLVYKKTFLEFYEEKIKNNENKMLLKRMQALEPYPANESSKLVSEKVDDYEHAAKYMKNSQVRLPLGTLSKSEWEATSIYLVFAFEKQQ
Sequence of human RNMT-RAM complex (Q9BTL3 whole entry partner): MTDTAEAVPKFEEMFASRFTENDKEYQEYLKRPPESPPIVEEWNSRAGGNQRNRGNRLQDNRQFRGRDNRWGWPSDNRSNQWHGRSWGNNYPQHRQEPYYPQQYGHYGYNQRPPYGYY

Structure (SMILES)	Emax (ZIKV NS5; LUM % inhibition) [%]	IC50 (ZIKV NS5; LUM % inhibition) [µM]	ZIKV NS5 inhibition: Hill slope (ZIKV NS5)	SAH counterscreen inhibition: Maximum response [1] [%]	SAH counterscreen inhibition: Hill slope [1]	IC50 [1] [µM]	IC50 (human RNMT-RAM complex; [2]) [µM]	hRNMT-RAM inhibition: Hill slope (human RNMT-RAM complex)	Emax (human RNMT-RAM complex) [%]	IC50 (ZIKV NS5; [3]) [µM]	IC50 (human RNMT-RAM complex) [µM]	Emax (human RNMT-RAM complex; LUM % inhibition) [%]
Cc1cnc(C(C)NC(=O)c2ccc(CNC(=O)c3ccc(O)c(C)c3)cn2)nc1 (stereo not drawn) [RU-0834184, CC1=CN=C(C(C)NC(=O)C2=NC=C(CNC(=O)C3=CC=C(O)C(C)=C3)C=C2)N=C1]	12.7	> 250	1.19	16.9	13.5	> 125	> 250	137	5.53	–	–	–
CCn1nc(C)c(C(=O)NCCc2ccc(CNC(=O)c3ccc4[nH]ncc4c3)cc2)c1C [RU-0834081, CCN1N=C(C)C(C(=O)NCCC2=CC=C(CNC(=O)C3=CC4=C(C=C3)NN=C4)C=C2)=C1C]	15.9	> 250	4.21	11.2	6.42	> 125	> 250	0.243	15.2	–	–	–
Cc1cc(C(=O)NCc2ccc(C(=O)NC(C)c3ccccc3C)nc2)ccc1O (stereo not drawn) [RU-0834146, CC1=CC(C(=O)NCC2=CN=C(C(=O)NC(C)C3=C(C)C=CC=C3)C=C2)=CC=C1O]	11.2	> 250	10.6	16.1	-44.2	> 125	> 250	86	4.85	–	–	–
Cc1nccc(C(=O)NCC2CCC3(CN(C(=O)c4cc(C)c5[nH]ncc5c4)C3)O2)c1C (stereo not drawn) [RU-0834173, CC1=C2C(=CC(C(=O)N3CC4(C3)CCC(CNC(=O)C3=C(C)C(C)=NC=C3)O4)=C1)C=NN2]	10.3	> 250	20.4	12.6	-9.25	> 125	> 250	1.99	3.36	–	–	–
O=C(Cn1cccc(-c2nc(-c3ccccc3)no2)c1=O)Nc1ccc(F)cc1F [RU-0833868, Fc1c(NC(=O)CN2C=CC=C(c3nc(c4ccccc4)no3)C2=O)ccc(F)c1]	64.4	–	0.969	21.5	19.2	> 125	> 250	3.14	5.14	122	–	–
Cc1ccc(NC(=O)Cn2nnc3ccccc3c2=O)cc1S(=O)(=O)N1CCCCC1 [RU-0833928, S(=O)(=O)(N1CCCCC1)c1c(C)ccc(NC(=O)CN2N=Nc3c(cccc3)C2=O)c1]	9.49	> 250	-7.54	21.6	-3.01	> 125	> 250	0.501	8.18	–	–	–
Cc1cnc(C(=O)NCc2ccc(CNC(=O)c3ccc(O)c(C)c3)cc2)c(C)c1 [RU-0834201, CC1=CC(C)=C(C(=O)NCC2=CC=C(CNC(=O)C3=CC=C(O)C(C)=C3)C=C2)N=C1]	12.1	> 250	0.157	14.6	-59.4	> 125	> 250	35.3	6.56	–	–	–
Cc1cc(C)c(C(=O)NCc2ccc(CNC(=O)c3ccc(O)c(C)c3)cc2)cn1 [RU-0834181, CC1=CC(C(=O)NCC2=CC=C(CNC(=O)C3=CN=C(C)C=C3C)C=C2)=CC=C1O]	14.9	> 250	0.143	12.2	63.6	> 125	> 250	0.346	20.8	–	–	–
C[C@@H](NC(=O)c1ccc(CNC(=O)c2ccc3[nH]ncc3c2)cc1)c1cccc(O)c1 [RU-0834179, C[C@@H](NC(=O)C1=CC=C(CNC(=O)C2=CC=C3NN=CC3=C2)C=C1)C1=CC(O)=CC=C1]	12.5	> 250	1.12	14.4	11.5	> 125	> 250	0.0614	6.78	–	–	–
COc1ccc(-c2ocnc2C(=O)Nc2ccc3oc(=O)n(CC(=O)N4CCCCC4)c3c2)cc1 [RU-0833661, COC1=CC=C(C2=C(C(=O)NC3=CC=C4OC(=O)N(CC(=O)N5CCCCC5)C4=C3)N=CO2)C=C1]	66.6	–	1.01	20.6	0.36	> 125	> 125	5.03	36.6	73.7	–	–
Cc1cccc(C(=O)NCC2CCC3(CN(C(=O)c4cc(C)c5[nH]ncc5c4)C3)O2)c1F (stereo not drawn) [RU-0834174, CC1=CC(C(=O)N2CC3(C2)CCC(CNC(=O)C2=CC=CC(C)=C2F)O3)=CC2=C1NN=C2]	12.9	> 250	1.95	16.2	-17	> 125	> 250	0.374	26.5	–	–	–
Cc1ccc(C)c(C(=O)NCC2CCC3(CN(C(=O)c4cc(C)c(O)c(C)c4)C3)O2)c1C (stereo not drawn) [RU-0834178, CC1=CC(C(=O)N2CC3(C2)CCC(CNC(=O)C2=C(C)C=CC(C)=C2C)O3)=CC(C)=C1O]	20.5	> 250	0.402	18.2	-6.31	> 125	> 250	13.1	3.1	–	–	–
Nc1ncnc2c1ncn2C1OC(CC(N)CCC(N)C(=O)O)C(O)C1O (stereo not drawn) [RU-0425548]	109	0.21	0.774	8.34	7.74	> 62.5	–	0.881	–	–	0.00596	102
